Data taken from US11648254B2 (Kumquat Biosciences Inc., priority 2021, dated 2023).
Where two headings read alike, the source gives them in different places.

Key:
[1] = test system: MIA PaCa-2 cells (K-Ras G12C); test: Ras-SOS cellular growth inhibition assay (CellTiter-Glo, 3D); type: cell-based; settings: Homo sapiens
Outline: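 Growth read by CellTiter-Glo luminescence about 5 days after dosing with 3-fold dilutions (9 points), added one day post-seeding. Cells: MIA PaCa-2, 3D culture on ultra-low-attachment surface, medium DMEM/Ham's F12 plus 10% FCS and 2.5% horse serum; IC50 by four-parameter fit.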

[2] = test system: NCI-H1975 cells (EGFR T790M L858R); test: EGFR-SOS cellular inhibition assay (CellTiter-Glo, 3D); type: cell-based; settings: Homo sapiens
[3] = molecular target: SOS1 (Homo sapiens (Human), UniProt Q07889); test: Ras-SOS interaction assay (HTRF); type: biochemical
Sequence of SOS1 (Q07889 564-1049): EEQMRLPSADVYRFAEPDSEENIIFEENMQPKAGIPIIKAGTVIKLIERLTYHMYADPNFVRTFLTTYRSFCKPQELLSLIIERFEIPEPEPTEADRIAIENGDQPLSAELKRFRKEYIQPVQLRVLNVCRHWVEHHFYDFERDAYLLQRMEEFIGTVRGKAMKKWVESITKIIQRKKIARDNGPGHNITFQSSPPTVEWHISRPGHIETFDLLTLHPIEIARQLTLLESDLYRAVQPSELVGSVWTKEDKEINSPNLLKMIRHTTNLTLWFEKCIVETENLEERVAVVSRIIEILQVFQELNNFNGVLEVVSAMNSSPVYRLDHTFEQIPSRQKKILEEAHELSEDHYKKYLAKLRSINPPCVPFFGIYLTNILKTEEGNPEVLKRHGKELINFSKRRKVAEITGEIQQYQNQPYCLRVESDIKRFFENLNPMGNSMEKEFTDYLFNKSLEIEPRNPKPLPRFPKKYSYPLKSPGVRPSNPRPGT

[4] = MIA PaCa-2, 120 h, MIA PaCa-2, 3D proliferation, about 5 days, read-out: Bio-Cell-Prolif-3D (MiaPaca2 IC50)
[5] = 120 h, NCI-H1975, 3D proliferation, about 5 days, read-out: Bio-Cell-Prolif-3D (H1975 IC50)
[6] = K-RasG13D utilized, read-out: IC50 inhibition of SOS
[7] = K-RasG13D, read-out: IC50 value against SOS1
[8] = MIA PaCa-2, MIA PaCa-2, read-out: IC50 in inhibiting MIA PaCa-2 cell growth
[9] = NCI-H1975, EGFR T790M L858R, read-out: IC50 in inhibiting growth of NCI-H1975 cell line

IC50 [1, 4]	IC50 [2, 5]	IC50 [3, 6]	IC50 [3, 7]	IC50 [1, 8]	IC50 [2, 9]	SMILES
1 to 10 µM	≤ 1 µM	< 0.1 µM	< 0.05 µM	–	–	Cc1nc(N[C@H](C)c2cccc(C(F)F)c2F)c2cc(C3CCN(C(C)C)CC3)c(OCCN(C)C)nc2n1 [Compound 369, (R)-N-(1-(3-(difluoromethyl)-2-fluorophenyl)ethyl)-7-(2-(dimethylamino)ethoxy)-6-(1-isopropylpiperidin-4-yl)-2-methylpyrido[2,3-d] pyrimidin-4-amine]
1 to 10 µM	≤ 1 µM	< 0.1 µM	–	–	–	Cc1nc(N[C@H](C)c2cccc(C(F)F)c2F)c2cc(C3(C#N)CC3)c(OC[C@@H]3CC(F)(F)CN3C)nc2n1 [Compound 296, 1-(7-(((S)-4,4-difluoro-1-methylpyrrolidin-2-yl)methoxy)-4-(((R)-1-(3-(difluoromethyl)-2-fluorophenyl)ethyl)amino)-2-methylpyrido[2,3-d]pyrimidin-6-yl)cyclopropane-1-carbonitrile]
≤ 1 µM	≤ 1 µM	–	< 0.05 µM	–	< 0.5 µM	COc1nc2nc(C)nc(N[C@H](C)c3cccc(C(F)(F)C4CN(C)C4)c3)c2cc1N1CCS(=O)(=O)CC1 [Compound 272, (R)-4-(4-((1-(3-(difluoro(1-methylazetidin-3-yl)methyl)phenyl)ethyl)amino)-7-methoxy-2-methylpyrido[2,3-d]pyrimidin-6-yl)thiomorpholine 1,1-dioxide]
≤ 1 µM	≤ 1 µM	< 0.1 µM	< 0.05 µM	–	–	Cc1nc(N[C@H](C)c2cccc(C(F)F)c2F)c2cc(N3CCN(C(C)C)CC3)c(OC3CN(C)C3)nc2n1 [Compound 370, (R)-N-(1-(3-(difluoromethyl)-2-fluorophenyl)ethyl)-6-(4-isopropylpiperazin-1-yl)-2-methyl-7-((1-methylazetidin-3-yl)oxy)pyrido[2,3-d]pyrimidin-4-amine]
≤ 1 µM	≤ 1 µM	< 0.1 µM	< 0.05 µM	< 0.5 µM	< 0.5 µM	COc1nc2nc(C)nc(N[C@H](C)c3cccc(C(F)F)c3F)c2cc1C1CCN(C2CCOCC2)CC1 [Compound 337, (R)-N-(1-(3-(difluoromethyl)-2-fluorophenyl)ethyl)-7-methoxy-2-methyl-6-(1-(tetrahydro-2H-pyran-4-yl)piperidin-4-yl)pyrido[2,3-d]pyrimidin-4-amine]
≤ 1 µM	≤ 1 µM	< 0.1 µM	< 0.05 µM	< 0.5 µM	< 0.5 µM	COc1nc2nc(C)nc(N[C@H](C)c3cccc(C(F)(F)C(C)(C)O)c3)c2cc1N1CCN(C)CC1 [Compound 324, (R)-1,1-difluoro-1-(3-(1-((7-methoxy-2-methyl-6-(4-methylpiperazin-1-yl)pyrido[2,3-d]pyrimidin-4-yl)amino)ethyl)phenyl)-2-methylpropan-2-ol]
≤ 1 µM	≤ 1 µM	< 0.1 µM	< 0.05 µM	–	< 0.5 µM	COCCOc1nc2nc(C)nc(N[C@H](C)c3cccc(C(F)F)c3F)c2cc1N1CCN(C)CC1 [Compound 343, (R)-N-(1-(3-(difluoromethyl)-2-fluorophenyl)ethyl)-7-(2-methoxyethoxy)-2-methyl-6-(4-methylpiperazin-1-yl)pyrido[2,3-d] pyrimidin-4-amine]

More lines, now with the values behind:

SMILES	IC50 [1, 4]	IC50 [2, 5]	IC50 [3, 6]	IC50 [3, 7]	IC50 [1, 8]	IC50 [2, 9]
CCN1CCN(c2cc3c(N[C@H](C)c4cccc(C(F)F)c4F)nc(C)nc3nc2OC)CC1 [Compound 115, (R)-N-(1-(3-(difluoromethyl)-2-fluorophenyl)ethyl)-6-(4-ethylpiperazin-1-yl)-7-methoxy-2-methylpyrido[2,3-d]pyrimidin-4-amine]	≤ 1 µM	≤ 1 µM	< 0.1 µM	< 0.05 µM	< 0.5 µM	–
COc1nc2nc(C)nc(N[C@H](C)c3cccc(C(F)(F)CCC4CN(C(C)C)C4)c3F)c2cc1C1CCS(=O)(=O)CC1 [Compound 238, (R)-4-(4-((1-(3-(1,1-difluoro-3-(1-isopropylazetidin-3-yl)propyl)-2-fluorophenyl)ethyl)amino)-7-methoxy-2-methylpyrido[2,3-d]pyrimidin-6-yl)tetrahydro-2H-thiopyran 1,1-dioxide]	≤ 1 µM	≤ 1 µM	< 0.1 µM	< 0.05 µM	< 0.5 µM	< 0.5 µM
COc1nc2nc(C)nc(N[C@H](C)c3cccc(C(F)F)c3F)c2cc1C1CCN(CCO)CC1 [Compound 130, (R)-2-(4-(4-((1-(3-(difluoromethyl)-2-fluorophenyl)ethyl)amino)-7-methoxy-2-methylpyrido[2,3-d]pyrimidin-6-yl)piperidin-1-yl)ethan-1-ol]	≤ 1 µM	≤ 1 µM	< 0.1 µM	< 0.05 µM	< 0.5 µM	< 0.5 µM
C[C@@H](Nc1ncnc2nc(OCCN(C)C)c(C3CCS(=O)(=O)CC3)cc12)c1cccc(C(F)F)c1F [Compound 251, (R)-4-(4-((1-(3-(difluoromethyl)-2-fluorophenyl)ethyl)amino)-7-(2-(dimethylamino)ethoxy)pyrido[2,3-d]pyrimidin-6-yl)tetrahydro-2H-thiopyran 1,1-dioxide]	1 to 10 µM	≤ 1 µM	< 0.1 µM	< 0.05 µM	–	< 0.5 µM
COc1nc2nc(C)nc(N[C@H](C)c3cccc(C(F)(F)CCC4CNC4)c3F)c2cc1C1(C#N)CC1 [Compound 172, (R)-1-(4-((1-(3-(3-(azetidin-3-yl)-1,1-difluoropropyl)-2-fluorophenyl)ethyl)amino)-7-methoxy-2-methylpyrido[2,3-d]pyrimidin-6-yl)cyclopropane-1-carbonitrile]	1 to 10 µM	≤ 1 µM	< 0.1 µM	< 0.05 µM	–	< 0.5 µM
COc1nc2ncnc(N[C@H](C)c3cccc(CC(F)F)c3F)c2cc1C1CCS(=O)(=O)CC1 [Compound 152, (R)-4-(4-((1-(3-(2,2-difluoroethyl)-2-fluorophenyl)ethyl)amino)-7-methoxypyrido[2,3-d]pyrimidin-6-yl)tetrahydro-2H-thiopyran 1,1-dioxide]	≤ 1 µM	≤ 1 µM	< 0.1 µM	< 0.05 µM	–	–
COc1nc2ncnc(N[C@H](C)c3cccc(C(F)(F)C4CCN(C(C)C)CC4)c3F)c2cc1N1CCN(C(C)C)CC1 [Compound 263, (R)—N-(1-(3-(difluoro(1-isopropylpiperidin-4-yl)methyl)-2-fluorophenyl)ethyl)-6-(4-isopropylpiperazin-1-yl)-7-methoxypyrido[2,3-d]pyrimidin-4-amine]	≤ 1 µM	≤ 1 µM	< 0.1 µM	< 0.05 µM	< 0.5 µM	< 0.5 µM
COc1nc2nc(C)nc(N[C@H](C)c3cccc(C(F)F)c3F)c2cc1CN1CCN(C(C)C)CC1 [Compound 105, (R)—N-(1-(3-(difluoromethyl)-2-fluorophenyl)ethyl)-6-((4-isopropylpiperazin-1-yl)methyl)-7-methoxy-2-methylpyrido[2,3-d]pyrimidin-4-amine]	≤ 1 µM	≤ 1 µM	< 0.1 µM	< 0.05 µM	< 0.5 µM	< 0.5 µM
